Reference: patent publication US9127040B2, “Regulation of sodium channels by PLUNC proteins” (The University of North Carolina at Chapel Hill, priority 2011, dated 2015)
Ends that are not written are not given here.

Biological target: T1, ENaC (Homo sapiens, UniProt P37088+P51168+P51170)
T1 construct: measured the transepithelial voltage under thin film conditions in human bronchial epithelial cultures; endogenous in cells; host or cells: primary human bronchial epithelial cultures (normal or CF donors)
T1 sequence (P37088 1-669): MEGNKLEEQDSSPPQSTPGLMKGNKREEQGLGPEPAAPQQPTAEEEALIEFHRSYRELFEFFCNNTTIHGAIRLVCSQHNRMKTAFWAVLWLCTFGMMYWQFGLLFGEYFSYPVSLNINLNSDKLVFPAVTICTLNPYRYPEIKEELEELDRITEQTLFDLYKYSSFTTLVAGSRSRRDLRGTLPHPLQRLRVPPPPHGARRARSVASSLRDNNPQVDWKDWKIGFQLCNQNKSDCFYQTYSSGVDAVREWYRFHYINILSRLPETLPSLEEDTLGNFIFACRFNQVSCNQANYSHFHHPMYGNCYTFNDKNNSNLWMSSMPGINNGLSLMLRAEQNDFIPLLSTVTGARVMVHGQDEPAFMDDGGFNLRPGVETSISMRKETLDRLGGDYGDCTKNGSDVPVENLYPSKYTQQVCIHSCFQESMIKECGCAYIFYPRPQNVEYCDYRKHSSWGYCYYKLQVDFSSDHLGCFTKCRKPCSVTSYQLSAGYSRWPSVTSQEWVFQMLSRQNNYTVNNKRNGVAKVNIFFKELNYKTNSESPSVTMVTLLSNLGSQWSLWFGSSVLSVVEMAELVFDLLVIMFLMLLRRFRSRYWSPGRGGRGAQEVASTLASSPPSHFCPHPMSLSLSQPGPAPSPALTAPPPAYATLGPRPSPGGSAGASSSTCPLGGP
T1 sequence (P51168 1-640): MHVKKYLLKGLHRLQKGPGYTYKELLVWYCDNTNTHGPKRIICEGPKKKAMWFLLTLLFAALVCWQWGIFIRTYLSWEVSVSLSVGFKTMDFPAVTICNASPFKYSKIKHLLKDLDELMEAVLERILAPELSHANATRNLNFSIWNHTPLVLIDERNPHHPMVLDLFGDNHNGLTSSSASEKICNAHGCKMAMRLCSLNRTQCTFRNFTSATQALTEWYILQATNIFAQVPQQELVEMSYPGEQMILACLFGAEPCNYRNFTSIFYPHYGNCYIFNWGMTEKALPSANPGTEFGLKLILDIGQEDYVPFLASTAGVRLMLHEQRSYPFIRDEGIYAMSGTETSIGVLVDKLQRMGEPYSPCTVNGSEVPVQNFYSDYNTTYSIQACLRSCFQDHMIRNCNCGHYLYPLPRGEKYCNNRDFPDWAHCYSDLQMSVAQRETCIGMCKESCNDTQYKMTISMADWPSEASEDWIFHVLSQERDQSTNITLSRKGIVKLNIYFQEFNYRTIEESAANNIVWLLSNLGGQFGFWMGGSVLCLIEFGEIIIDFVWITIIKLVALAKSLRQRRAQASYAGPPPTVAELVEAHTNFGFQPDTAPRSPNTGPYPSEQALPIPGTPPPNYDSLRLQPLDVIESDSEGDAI
T1 sequence (P51170 1-649): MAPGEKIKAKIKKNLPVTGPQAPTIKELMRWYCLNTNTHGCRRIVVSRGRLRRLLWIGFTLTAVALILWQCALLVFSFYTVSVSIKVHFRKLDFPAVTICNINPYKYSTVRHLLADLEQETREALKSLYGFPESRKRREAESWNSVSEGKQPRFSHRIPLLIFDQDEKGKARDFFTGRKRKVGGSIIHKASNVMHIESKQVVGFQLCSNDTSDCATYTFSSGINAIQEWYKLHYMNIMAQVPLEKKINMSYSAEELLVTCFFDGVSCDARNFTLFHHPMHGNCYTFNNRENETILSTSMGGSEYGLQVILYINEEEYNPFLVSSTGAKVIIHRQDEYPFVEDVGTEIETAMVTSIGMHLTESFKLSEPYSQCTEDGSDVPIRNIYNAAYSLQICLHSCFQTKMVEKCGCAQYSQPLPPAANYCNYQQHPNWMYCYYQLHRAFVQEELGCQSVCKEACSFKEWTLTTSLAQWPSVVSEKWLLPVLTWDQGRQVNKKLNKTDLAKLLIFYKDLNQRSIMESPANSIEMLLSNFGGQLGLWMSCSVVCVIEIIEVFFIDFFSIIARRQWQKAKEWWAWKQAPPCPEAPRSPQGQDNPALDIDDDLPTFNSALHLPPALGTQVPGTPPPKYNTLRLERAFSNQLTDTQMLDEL
Experiment: Thin film amiloride-sensitive transepithelial PD in CF HBECs
Assay type: cell-based
Details: 10 μM S18, over 24 h
Method: A, airway surface liquid (ASL) height with time in CF HBECs measured by XZ confocal microscopy after apical addition of 20 μl Ringer with rhodamine-dextran. ▪=control; ▴=10 μM S18. Both n=6. B, Thin film amiloride-sensitive transepithelial PD measured in the same cultures as A, with microelectrodes positioned in the ASL and serosal bath. Open bars, control, closed bars, S18, n=6. C, Dose response to S18 vs. ASL height in CF primary human bronchial epithelial cultures (HBECs) measured 8 h after S18 addition. D, Bar graph of 8 h ASL height in CF HBECs. Control (open bars), S18 black bars, aprotinin, gray bars. NE, neutrophil elastase. ANS, activated neutrophil supernatant. All n=6. *p<0.05 different to vehicle. †p<0.05 different to aprotinin.
A single-barreled potential difference-sensing electrode was placed in the airway surface liquid by micromanipulator and used in conjunction with a macroelectrode in the serosal solution to measure transepithelial voltage using a voltmeter (World Precision Instruments). […] Transepithelial resistance was routinely measured using the EVOM system (WPI) as previously described (Tarran et al., J. Gen. Physiol. 127:591 (2006)).

## GGLPVPLDQTLPLNVNPA [S18]
  amiloride-sensitive PD: reduced the amiloride-sensitive PD
